# Results taken from patent US12071624B2, “Antisense oligonucleotide targeting ARL4C molecule, and nucleic acid drug using antisense oligonucleotide” (OSAKA UNIVERSITY, priority 2018, dated 2024).
# Test system: ARL4C mRNA
# Assay: ARL4C mRNA amount by real-time PCR in HCT116 cells
# Format: cell-based, human
# Conditions: HCT116 cells transfected at 25 nM
# Method: HLE cells, HCT116 cells, and A549 cells were transfected with 25 to 50 nM ASO and 10 to 20 nM siRNA using Lipofectamine 3000 (Invitrogen, Carlsbad, CA, USA) or RNAiMAX (Invitrogen). Transfected cells were used in the experiments 36 to 48 hours after the end of the transfection.
# Cell migration assays and quantitative real-time PCR analyses were performed according to the methods reported by Fujii S et al. (Oncogene 2015; 34: 4834-44).
# HLE cells and HCT116 cells were transfected with the above-described seven types of ARL4C ASOs and the control ASO at 25 nM, and the ARL4C mRNA amounts were measured by real-time PCR; the results thereof are shown in (a) of FIG. 4. […] In order to optimize the effect of these three types of ARL4C ASOs, four bases were added to each of these three types of ARL4C ASOs, whereby ASO-1312, ASO-1450, and ASO-3223 each of which consisted of 19 bases were produced. With these six types of ARL4C ASOs (ASO-1316, ASO-1312, ASO-1454, ASO-1450, ASO-3225, and ASO-3223), the knockdown effect on ARL4C was further studied.
substance,measurement,value
"ASO-1316: 15-mer AmNA/phosphorothioate ASO targeting ARL4C, base sequence SEQ ID NO: 1 gcatacctcaggtaa; Table 1 SEQ ID NO 13 (antisense GCATACCTCAGGTAA; AmNA and phosphorothioate modified, pattern not given here)",ARL4C mRNA amount,reduced the ARL4C mRNA amount
